Molecular target: T1, human parathyroid cell Ca^2+ receptor (hPCaR) (Homo sapiens, UniProt P41180)
T1 construct: expressed in transfected cells
T1 sequence (P41180 20-1078): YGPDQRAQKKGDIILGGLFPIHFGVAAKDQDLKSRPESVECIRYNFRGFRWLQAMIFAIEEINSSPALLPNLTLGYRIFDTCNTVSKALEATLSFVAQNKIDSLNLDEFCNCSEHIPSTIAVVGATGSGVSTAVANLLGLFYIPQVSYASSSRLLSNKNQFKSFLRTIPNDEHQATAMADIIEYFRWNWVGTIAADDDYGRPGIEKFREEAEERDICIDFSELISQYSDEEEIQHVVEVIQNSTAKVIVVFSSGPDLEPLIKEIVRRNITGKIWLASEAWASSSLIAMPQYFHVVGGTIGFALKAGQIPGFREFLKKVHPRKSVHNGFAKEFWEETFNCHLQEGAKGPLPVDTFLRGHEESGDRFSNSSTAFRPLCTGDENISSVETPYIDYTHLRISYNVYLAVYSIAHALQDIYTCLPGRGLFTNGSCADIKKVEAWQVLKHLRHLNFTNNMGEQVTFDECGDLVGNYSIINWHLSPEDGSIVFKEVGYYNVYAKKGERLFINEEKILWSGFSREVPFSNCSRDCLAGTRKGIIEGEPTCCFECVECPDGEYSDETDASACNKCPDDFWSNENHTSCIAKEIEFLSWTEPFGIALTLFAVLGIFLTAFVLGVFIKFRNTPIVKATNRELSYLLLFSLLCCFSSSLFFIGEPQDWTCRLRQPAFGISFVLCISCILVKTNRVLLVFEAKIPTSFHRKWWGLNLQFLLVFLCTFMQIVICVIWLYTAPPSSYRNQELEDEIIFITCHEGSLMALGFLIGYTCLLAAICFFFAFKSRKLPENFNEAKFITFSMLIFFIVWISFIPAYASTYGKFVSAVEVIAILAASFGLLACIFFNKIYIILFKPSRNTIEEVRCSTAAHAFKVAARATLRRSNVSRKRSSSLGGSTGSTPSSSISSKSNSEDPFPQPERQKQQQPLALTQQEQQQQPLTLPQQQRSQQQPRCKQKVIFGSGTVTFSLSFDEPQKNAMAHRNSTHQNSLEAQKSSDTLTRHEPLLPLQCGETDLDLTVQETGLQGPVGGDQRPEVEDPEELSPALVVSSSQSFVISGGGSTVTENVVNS
Assay: [Ca2+]i measurement with fluo-3 in HEK 293 4.0-7 cells stably transfected with hPCaR
Type: cell-based
Conditions: fluo-3 fluorescence (485/530 nm), effect on [Ca^2+]i
Procedure, shortened: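 Cytosolic [Ca2+] was read as fluo-3 fluorescence (ex 485/em 530 nm) after compound addition to washed cells. Cells were hPCaR-transfected HEK 293 clone 7, dye-loaded 30 min at 37 °C with 2 μM fluo-3 acetoxymethyl ester in HEPES-buffered saline pH 7.45 containing 1 mM CaCl2 and 0.5% BSA.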

EC50 [µM] | SMILES
≤ 10 | COc1ccc(CN[C@H](C)c2cccc3ccccc23)cc1-c1ccsc1 [(1R)-N-((4-(methyloxy)-3-(3-thienyl)phenyl)methyl)-1-(1-naphthalenyl)ethanamine]
≤ 10 | Cc1ccc(CN[C@H](C)c2ccccc2)cc1-c1cccnc1 [Example 451, (1R)-N-((4-methyl-3-(3-pyridinyl)phenyl)methyl)-1-phenylethanamine]
≤ 10 | COc1ccc(CN[C@H](C)c2cccc3ccccc23)cc1-c1cncc(C(N)=O)c1 [5-(2-(methyloxy)-5-((((1R)-1-(1-naphthalenyl)ethyl)amino)methyl)phenyl)-3-pyridinecarboxamide]
≤ 10 | COc1cccc(-c2cc(CN[C@H](C)c3ccccc3)ccc2OC)c1 [Example 449, (1R)-N-((3′,6-bis(methyloxy)-1,1′-biphenyl-3-yl)methyl)-1-phenylethanamine]
≤ 10 | COc1ccc(CN[C@H](C)c2cccc3ccccc23)cc1-c1ccc(OCC(F)(F)F)nc1 [(1R)-N-((4-(methyloxy)-3-(6-((2,2,2-trifluoroethyl)oxy)-3-pyridinyl)phenyl)methyl)-1-(1-naphthalenyl)ethanamine]
≤ 10 | COc1ccc(CN[C@H](C)c2cccc3ccccc23)cc1-c1ccc2c(c1)CCO2 [(1R)-N-((3-(2,3-dihydro-1-benzofuran-5-yl)-4-(methyloxy)phenyl)methyl)-1-(1-naphthalenyl)ethanamine]
≤ 10 | COc1ccc(CN[C@H](C)c2cccc3ccccc23)cc1-c1ccc2c(c1)nc(C(F)(F)F)n2C [(1R)-N-((4-(methyloxy)-3-(1-methyl-2-(trifluoromethyl)-1H-benzimidazol-5-yl)phenyl)methyl)-1-(1-naphthalenyl)ethanamine]
≤ 10 | COc1ccc(CN[C@H](C)c2cccc3ccccc23)cc1-c1csc(N2CCCCC2)n1 [(1R)-N-((4-(methyloxy)-3-(2-(1-piperidinyl)-1,3-thiazol-4-yl)phenyl)methyl)-1-(1-naphthalenyl)ethanamine]
≤ 10 | COc1ccc(CN[C@H](C)c2cccc(Cl)c2)cc1-c1ccccc1 [(1R)-1-(3-chlorophenyl)-N-((6-(methyloxy)-1,1′-biphenyl-3-yl)methyl)ethanamine]
≤ 10 | COc1ccc(CN[C@H](C)c2cccc3ccccc23)cc1-c1cccnc1 [(1R)-N-((4-(methyloxy)-3-(3-pyridinyl)phenyl)methyl)-1-(1-naphthalenyl)ethanamine]
≤ 10 | COc1ccc(CN[C@H](C)c2cccc3ccccc23)cc1-c1ccc2c(cnn2C)c1 [(1R)-N-((3-(1-methyl-1H-indazol-5-yl)-4-(methyloxy)phenyl)methyl)-1-(1-naphthalenyl)ethanamine]
≤ 10 | COc1ccc(CN[C@H](C)c2ccc3ccccc3c2)cc1-c1ccsc1 [(1R)-N-((4-(methyloxy)-3-(3-thienyl)phenyl)methyl)-1-(2-naphthalenyl)ethanamine]
≤ 10 | COCCOc1ccc(CN[C@H](C)c2cccc3ccccc23)cc1-c1ccc(C(F)(F)F)cc1 [(1R)-N-((6-((2-(methyloxy)ethyl)oxy)-4′-(trifluoromethyl)-1,1′-biphenyl-3-yl)methyl)-1-(1-naphthalenyl)ethanamine]
≤ 10 | CCOc1ccc(-c2cc(CN[C@H](C)c3cccc4ccccc34)ccc2OC)cn1 [(1R)-N-((3-(6-(ethyloxy)-3-pyridinyl)-4-(methyloxy)phenyl)methyl)-1-(1-naphthalenyl)ethanamine]
≤ 10 | COc1ccc(CN[C@H](C)c2cccc3ccccc23)cc1-c1ccc2ncccc2c1 [(1R)-N-((4-(methyloxy)-3-(6-quinolinyl)phenyl)methyl)-1-(1-naphthalenyl)ethanamine]

The next lines start with the molecule.

SMILES | EC50 [µM]
CC(=O)Nc1ccc(-c2cccc(CN[C@H](C)c3ccccc3)c2)cn1 [Example 250, N-(5-(3-((((1R)-1-phenylethyl)amino)methyl)phenyl)-2-pyridinyl)acetamide] | ≤ 10
COc1cccc([C@@H](C)NCc2ccc(OC)c(-c3ccc(=O)n(C)c3)c2)c1 [1-methyl-5-(2-(methyloxy)-5-((((1R)-1-(3-(methyloxy)phenyl)ethyl)amino)methyl)phenyl)-2(1H)-pyridinone] | ≤ 10
COc1cccc([C@@H](C)NCc2cccc(-c3nc(C)no3)c2)c1 [(1R)-N-((3-(3-methyl-1,2,4-oxadiazol-5-yl)phenyl)methyl)-1-(3-(methyloxy)phenyl)ethanamine] | ≤ 10
COc1ccc(CN[C@H](C)c2ccccc2)cc1-c1cccnc1N1CCOCC1 [(1R)-N-((4-(methyloxy)-3-(2-(4-morpholinyl)-3-pyridinyl)phenyl)methyl)-1-phenylethanamine] | ≤ 10
CC(=O)Nc1cccc(-c2cccc(CN[C@H](C)c3ccccc3)c2)c1 [N-(3′-((((1R)-1-phenylethyl)amino)methyl)-1,1′-biphenyl-3-yl)acetamide] | ≤ 10
COc1cccc([C@@H](C)NCc2cccc(-c3cncc(C(N)=O)c3)c2)c1 [5-(3-((((1R)-1-(3-(methyloxy)phenyl)ethyl)amino)methyl)phenyl)-3-pyridinecarboxamide] | ≤ 10
COc1ccc(CN[C@H](C)c2ccccc2)cc1-c1ccc2nsnc2c1 [(1R)-N-((3-(2,1,3-benzothiadiazol-5-yl)-4-(methyloxy)phenyl)methyl)-1-phenylethanamine] | ≤ 10
COc1cccc([C@@H](C)NCc2ccc(OC)c(-c3ccc4ccn(C)c4c3)c2)c1 [(1R)-N-((3-(1-methyl-1H-indol-6-yl)-4-(methyloxy)phenyl)methyl)-1-(3-(methyloxy)phenyl)ethanamine] | ≤ 10
COc1ccc(CN[C@H](C)c2ccc(C)cc2)cc1-c1cnccn1 [(1R)-N-((4-(methyloxy)-3-(2-pyrazinyl)phenyl)methyl)-1-(4-methylphenyl)ethanamine] | ≤ 10
C[C@@H](NCc1cccc(-c2cncc(C(N)=O)c2)c1)c1ccc2ccccc2c1 [Example 461, 5-(3-((((1R)-1-(2-naphthalenyl)ethyl)amino)methyl)phenyl)-3-pyridinecarboxamide] | ≤ 10
COc1cccc([C@@H](C)NCc2ccc(OC)c(-c3ccc(C(=O)O)o3)c2)c1 [5-(2-(methyloxy)-5-((((1R)-1-(3-(methyloxy)phenyl)ethyl)amino)methyl)phenyl)-2-furancarboxylic acid] | ≤ 10
COc1cccc([C@@H](C)NCc2ccc(OC)c(-c3ccc4c(ccn4CC(N)=O)c3)c2)c1 [2-(5-(2-(methyloxy)-5-((((1R)-1-(3-(methyloxy)phenyl)ethyl)amino)methyl)phenyl)-1H-indol-1-yl)acetamide] | ≤ 10
COc1ccc(CN[C@H](C)c2ccccc2)cc1-c1ccc2c(c1)nc(C(F)(F)F)n2C [(1R)-N-((4-(methyloxy)-3-(1-methyl-2-(trifluoromethyl)-1H-benzimidazol-5-yl)phenyl)methyl)-1-phenylethanamine] | ≤ 10
COc1ccc(CNC(C)c2ccc(F)cc2)cc1-c1ccc(C(F)(F)F)cc1 (stereo not drawn) [1-(4-fluorophenyl)-N-((6-(methyloxy)-4′-(trifluoromethyl)-1,1′-biphenyl-3-yl)methyl)ethanamine] | ≤ 10
COc1cccc([C@@H](C)NCc2ccc(OC)c(-c3ccc(OCC(F)(F)F)nc3)c2)c1 [(1R)-1-(3-(methyloxy)phenyl)-N-((4-(methyloxy)-3-(6-((2,2,2-trifluoroethyl)oxy)-3-pyridinyl)phenyl)methyl)ethanamine] | ≤ 10
